# Assay results as given in patent US6407058B1, “Modifying the permeability of physiological barriers” (Eisai Co., Limited, priority 1996, dated 2002).
# What was measured:
# Format in all cases: cell-based
# Settings in all cases: 200 nM PDB, 30 minutes
# p100/p120 [1] = experiment: p100/p120 electrophoretic mobility, bovine aortic endothelial cells (BAECs)
# Method: The mobility of p100 and p120 during electrophoresis is also altered by PDB-treatment in endothelial cells. The p100/p120 proteins from human umbilical vein endothelial cells (HUVECs), bovine aortic endothelial cells (BAECs) and primary pig brain endothelial cells (PBECs) were all affected by PDB-treatment. Cells were treated with or without 200 nM PDB for 30 minutes, lysed into Laemmli sample buffer, separated by electrophoresis and analysed by immunoblotting with antibodies recognising p100 and p120. […] Thus the effect of PKC activation (via PDB) on p100/p120 mobility is a widespread phenomenon.
# Whole cell lysates were prepared by rapidly replacing the culture medium in 6.5 mm with hot Laemmli sample buffer, followed by heating at 100° C. for 5 minutes. Immunoprecipitations were carried out at 4° C. Confluent monolayers of cells were washed rapidly with ice cold PBS (containing 0.9 mM CaCl2 and 0.5 mM MgCl2) before addition of 0.5 ml of the appropriate buffer. The filters were then gently scraped, and the lysate was removed and centrifuged at 14000× g. […]
# Cell extracts or immunoprecipitates in SDS sample buffer were resolved by SDS-PAGE. […] The filters were then extensively washed in PBS/0.5% Tween-20, and immunoreactive bands were detected by enhanced chemiluminescence (Amersham) following the manufacturers instructions.
# p100/p120 [2] = experiment: p100/p120 electrophoretic mobility, MDCK strain II cells
# Method: p100 and p120 electrophoretic mobility is affected by PDB in a number of different epithelial cell lines. LLC-PK1, (a porcine kidney cell line), MDCK strain II cells and gut-derived Caco-2 cells were treated with or without 200 nM PDB for 30 minutes, lysed into Laemmli sample buffer, separated by electrophoresis and analysed by immunoblotting.
# MDCK strain I and II cells were provided by Barry Gumbiner (memorial Sloan-Kettering Cancer Center, NY). LLC-PK1 and Caco-2 cells were obtained from the European Collection of Animal Cell Cultures. All cells were maintained at 37° C. under 5% CO2 in humidified air. MDCK strain I and II cells were maintained in MEM containing 10% FCS, 100 U/ml penicillin, 100 μg/ml streptomycin and 2 mM L-glutamine. Caco-2 cells were maintained in MEM containing 15% FCS, 1% non-essential amino acids and 1 μg/ml bovine insulin (Sigma I-6634). LLC-PK1 cells were grown in M199 (Gibco), 10% FCS, 100 U/ml penicillin, 100 μg/ml streptomycin and 2 mM L-glutamine. For whole cell lysate analysis, 10^5 cells were plated on 6.5 mm diameter, 0.4 μm, polycarbonate Transwell filters from Costar, in 0.25 ml of medium. The basolateral chamber contained 0.75 ml of medium. For immunoprecipitation, 5×10^5 cells were plated onto 24 mm Transwell filters, in 2 ml of medium, with 3 ml of medium in the lower chamber. Cells were used 4-7 days after plating. […]
# paxillin = paxillin electrophoretic mobility by immunoblotting, MDCK I cells
# Method: The migration of the cellular proteins p100 and p120 during electrophoresis is increased following PDB-treatment of MDCK I cells. PDB (phorbol-12,13-dibutyrate) is a pharmacological activator of protein kinase C. MDCK I cells are a kidney derived epithelial cell line, with particularly well developed junctional complexes. Cells treated for 30 minutes with either 200 nM PDB (+) or vehicle (−) were then lysed into Laemmli sample buffer, and separated by electrophoresis using 6% acrylamide gels. Proteins were transferred to nitrocellulose and probed with antibodies to p100/p120, and then reprobed with E-cadherin and paxillin antibodies.
# Cell extracts or immunoprecipitates in SDS sample buffer were resolved by SDS-PAGE. The slab gels were then equilibrated in buffer comprising; 48 mM Tris, 39 mM glycine, 20% methanol and 0.03% SDS. Proteins were transferred to nitrocellulose filters (Hybond ECL; Amersham), which were Ponceau S stained and then blocked for 2 hours at 37° C. with 1% BSA in PBS containing 0.05% Tween-20. Filters were then probed with p120 antibody, at a dilution of 1:2500. […] The filters were then extensively washed in PBS/0.5% Tween-20, and immunoreactive bands were detected by enhanced chemiluminescence (Amersham) following the manufacturers instructions.
smiles,measurement,setting,value
"CCCC(=O)O[C@@H]1[C@@H](C)[C@@]2(O)[C@@H](C=C(CO)C[C@]3(O)C(=O)C(C)=C[C@@H]23)[C@@H]2C(C)(C)[C@]12OC(=O)CCC [PDB, Phorbol-12,13-dibutyrate]",mobility of p100 and p120,p100/p120 [1],the mobility of p100 and p120 increased
same,migration of p100 and p120,p100/p120 [2],increased markedly
same,effect on paxillin migration (phosphorylation),paxillin,upward band shift
